Data from US10106777B2, “Directed differentiation and maturation of pluripotent cells into hepatocyte like cells by modulation of Wnt-signalling pathway” (Takara Bio Europe AB, priority 2010, dated 2018).

How the values were obtained:
[1] = test system: feeder free cultured hPS cells; assay: Hepatic gene marker expression in hepatocyte-like cells from feeder free hESC; type: cell-based, human; conditions: with vs without GSK3 inhibitor
Description: The split media (SM) gave the same levels as without split media. Two controls were used undifferentiated cells cultured feeder free (UD feeder free) and a perpetual cell line from a hepatocellular carcinoma (HepG2). The levels of AFP, KRT18 (Keratin 18) and KRT19 (Keratin 19) indicate that the cells are maintained in a stage where they still have the ability to proliferate. The cells were 23 days when they were analyzed, n=3.

[2] = test system: feeder free cultured hPS cells
Description: Feeder free cultured hPS cells with and without the GSK3 inhibitor, as well as an alternative method where a split media as described in FIG. 3C were compared for their hepatic profile and homogeneity.
A) Results from Activity assay of CYP1A and CYP3A measured by conversion of paracetamol and OH_midazolam respectively.
hESCs cultured under feeder free conditions were incubated in media supplemented with Activin A. The cells were then induced into hepatocytes by differentiating them to hepatic progenitor cells and then to more mature hepatocyte like cells. Cells cultured with and without the GSK3 inhibitor were compared for their hepatic profile and homogeneity.

[3] = test system: hESC derived hepatocytes (hESC-HEP); assay: Morphological observation of purity and homogeneity of hESC-HEP cultures; type: cell-based, human
Description: FIGS. 8A-E. Differentiation of hESC derived hepatocytes in the presence of GSK3 inhibitor from day 3 purifies hepatocytes from other cell types.
A-C show hESC-HEP at day 17, differentiated by protocol i or ii according to FIG. 2. D-E show hESC-HEP at day 15, differentiated by protocol iii or vi according to FIG. 2,
B) 1 μM BIO day 3-9, protocol ii.
C) 5 μM BIO day 3-9, protocol ii.
D) 0 μM BIO day 3-9, 1.5 μM BIO day 10-15 protocol iii,
E) 3.5 μM BIO day 3-9, 1.5 μM BIO day 10-15 protocol vi.
A and B show hESC-HEP cultures which are over grown by another cell type where as in C the majority of cells in the culture are hepatocyte-like cells. E represent a purer hESC-HEP culture than D. White arrow: hepatocyte-like cells, black arrow: other cell type than hepatocyte-like cells. Scale bar: 100 μm.
(§1) Thus it appears advantageous to add GSK-3 inhibitors at a later stage of differentiation to avoid massive cell death seen when it is added at day 3. […] In addition, GSK3 inhibitors at this stage may contribute/stimulate to hepatic induction of the competent endoderm.

[4] = test system: hiPS cells
Description: FIGS. 5A and B. hiPS cells cultured with and without the GSK3 inhibitor were compared for their hepatic profile and homogeneity. Where a GSK3 inhibitor was added it was added at a later stage of the differentiation, according to FIG. 3. Derivation of hepatocytes from human induced pluripotent stem cells (hiPS).
The cells were 30 days, n=8. hiPS vs hiPS+BIO.
The undifferentiated hiPS cells were cultured in Activin A supplemented media to stimulate initial differentiation into partly differentiated cells. The hiPS derived partly differentiated cells were then passaged (to plates coated with 0.1% Gelatin or Matrigel 0.016 mM) and induced to hepatic progenitor cells and then to hepatocyte like cells in media with and without BIO supplementation, see FIG. 3 A)-B).
The hiPS cells were cultured on mEFs until they were confluent. The cells were washed twice in PBS+/+ and treated with Activin A containing medium (See FIG. 3 a-b). The cells adapted an endoderm like morphology around day 3. When the majority of the cells were partly differentiated, the cells were exposed to media supplemented with factors inducing the cells into hepatocyte-like cells (See FIG. 3A)-B)) plus or minus BIO.

[5] = test system: UDP-glucuronyltransferases (UGTs); assay: UGT metabolic activity in hESC-HEP from feeder-free hESC; type: cell-based, human
Description: FIG. 11. Relative expression levels of UGT hepatic metabolic markers in hESC-HEP generated with or without Wnt-signalling modulation by GSK-3 inhibitor BIO during endoderm to hepatocyte-like cell phase. FC=fold change relative expression, control set […] to 1 for each example. Graphs show expression levels in cells treated with one of three differentiation/maturation protocols (see example 21) and +/−GSK-3 inhibitor treatment for activity of UGTs on specific UGT substrates: (UGT1A1,[8-estradiol]); (UGT2B, [8-estradiol]; (UGT1A6, [1-Napthol]), (UGT1A9, [Propofol]), (UGT2B7, [Naloxone]). A non-specific control (Methylumbelliferone) was also included. n=number of experiments averaged to obtain results.
Metabolic activity of hESC-HEP derived from hESCs cultured in feeder-free conditions (see Examples 12-14) was measured to determine the effect of GSK-3 inhibition during development and maturation by examining the activity of several UDP-glucuronyltransferases (UGTs) (enzymes that participate in the metabolism of many drugs). Activity of these UGTs was tested via several substrates, namely: β-estradiol (UGT1A1, 3-glucuronide), 1-naphthol (UGT1A6), propofol (UGT1A9), and naloxone (UGT2B7). A non-specific control (Methylumbelliferone) was also included (see FIGS. 12A-B). hESC-HEPs were differentiated essentially according to Example 12, up to day 7. […]

[6] = test system: Beta-catenin; assay: Immunolocalisation of Beta-catenin in hES-HEP; type: cell-based, human
Description: C) Immunolocalisation of Beta-catenin and Dapi staining of hES-HEP-BIO (A) and hES-HEP+BIO (B) Beta-catenin is localized at the cell membrane in hES-HEP cultures not treated and treated with BIO. […] Day 21, 20×

[7] = test system: hES cells
Description: Where a GSK3 inhibitor was added it was added at a later stage of the differentiation, according to FIG. 3B.
B) Results of hepatic markers from Q-PCR of the same cells that were analysed by Activity assay (Q-PCR hPS+/−BIO) n=4.

[8] = test system: hESC derived hepatocytes (hESC-HEP)
Description: Analysis are performed at day 16-18 (n=7-8), 20-21 (n=5) and 25 (n=2) respectively, mean±SD.
MEF-cultured hESCs (hES cells cultured on feeder cells) were differentiated into hepatocyte-like cells according to examples 4, 8 and 9, thus comparing the absence of BIO, a GSK3-inhibitor (Example 4), to the influence of BIO during the maturation step (day 10-26) in maturation medium I and II (MM I and MM II)(Example 8 and 9 respectively). Before adding the first medium, ID day 0-2, the cultures were washed thoroughly with PBS, twice. The different mediums were prepared freshly and added day 0 (DE day 0-1), 2 (DE day 2-4), 4 and 7-10 every other to third day (VH1), 10-26 every second or third day (MMI or MM II). […] Cells were counted in a Bürker chamber and seeded out in 0.1% gelatine coated culture units (e.g. in 24-well plates) at a cell density of 150 to 250K cells per cm^2.
At day 16, 18, 20, 21 and 25 hESC-HEP cultures were analyzed for cytochrome P450 1A activity by incubating the substrate Phenacetine to a final concentration of 26 μM in Phenol Red-free Williams Medium E, supplemented with 0.1% Penicilline-Streptomycin 2 mM L-Glutamine and 25 mM Hepes. […] Samples were analysed by Liquid chromatography-mass spectrometry (LC-MS) LCMS for presence of the metabolite Paracetamol, biotransformed by the cytochrome p450 enzymes Cyp1A2, 1A1.

[9] = test system: hiPS cells; remark: listed apart in the source
[10] = test system: MEF cultured hESC; assay: Cell death on addition of BIO at day 3 of differentiation; type: cell-based, human
Description: as §1

[11] = test system: hESC-HEP (cell-line SA002)
Description: Qrt-PCR data is presented as fold change gene expression levels of HepG2 except for BSEP, which graph show fold change of calibrator. N=2-3, mean±SEM.
hESC-HEP were derived from cell-line SA002 cultures on mEF-layer according to Example 9, FIG. 2, protocol iii (absence of BIO between day 3-10) or Example 11, FIG. 2, protocol iv (presence of 3.5 μM BIO between day 3-10). Total RNA was collected and isolated from the two hES-HEP cultures at day 21, 24, 26 and 28 by using RNA isolation kit from Qiagene. Quantitative reverse transcriptase PCR, QrtPCR, by using Taqman probes, was performed for the following hepatic marker genes: phase I drug metabolizing enzymes; CYP (cytochrome P450) 3A4, 3A5, 3A7, 2C9, phase II drug metabolizing enzymes GSTA1 (glutation-S-transferas A1), UGT2B7 (UDP glucuronosyltransferase 2B7), phase III, transporters; MRP2 (multi-drug residence protein 2), BSEP (bile salt export pump), and general hepatic markers; A1AT (alpha-1 antitrypsin), ALB (albumin) and TAT (tyrosine-amino transferas). All data was normalised to the house-keeping gene CREB. RNA from HepG2 cultures was included and data is presented as fold change of HepG2. […] Thus, BSEP expression is instead presented as fold change of a so called calibrator which contains RNA from different sources.

[12] = test system: hES cells; remark: listed apart in the source
Description: FIGS. 6A and B. hES cells cultured with and without the GSK3 inhibitor were compared for their hepatic profile and homogeneity, as described in examples 12 and 13. Where a GSK3 inhibitor was added it was added at a later stage of the differentiation, according to FIG. 3B.
A) Results from Activity Assay of CYP1A, 3A and 2C. […] The cells were 30 days, n=8. hPS vs hPS+BIO.B)

[13] = test system: hESC-HEP; assay: Hepatic marker expression in hESC-HEP, GSK-3 inhibitors at later stage (from day 10); type: cell-based, human; conditions: GSK-3 inhibitor from day 10, compared to BIO
Description: FIGS. 12A and B. Relative expression levels of hepatic markers in hESC-HEP generated with modulation of Wnt-signalling by GSK-3 inhibitors other than BIO during later maturation period (day 10 onwards). Treatments shown include: hESC-HEP (negative control; cells never exposed to GSK-inhibitor during differentiation), BIO, SB216763, Kenpaullone, Indirubin-3-O; also included is a second negative control undifferentiated hESC cells (hESC). […] GSK-3 inhibitors were present only during later differentiation (from day 10 onwards); also included is a further negative control graph showing the expression levels of a housekeeping gene (Creb) across the various samples.
Furthermore, differentiating cells were exposed to GSK-3 inhibitors only during later (from day 10) stages of differentiation. Three alternative GSK-3 inhibitors were tested alongside BIO to determine effectiveness in inducing hepatic marker expression (SB216763, Kenpaullone and Indirubin-3-O) and results were compiled both for Phase I and Phase II enzymes and hepatic markers, with two negative controls (hESC-HEP not exposed to GSK-3 inhibition during differentiation, and undifferentiated hESC cells). […]

[14] = test system: hESC-HEP; assay: Hepatic marker expression in hESC-HEP, GSK-3 inhibitors at mid and late stage; type: cell-based, human; conditions: Kenpaullone 0.23 μM days 3-9, 2.5 μM days 10-23, compared to BIO
Description: FIGS. 13A and B. Relative expression levels of hepatic markers in hESC-HEP generated with modulation of Wnt-signalling by GSK-3 inhibitors other than BIO during both mid (days 3-9) and late stage (days 10-23) differentiation. Treatments shown include: hESC-HEP (negative control; cells never exposed to GSK-inhibitors), BIO, SB216763, Kenpaullone, Indirubin-3-O; also included is a second negative control undifferentiated hESC cells (hESC); also included is a further negative control graph showing the expression levels of a housekeeping gene (Creb) across the various samples.
Differentiating cells were exposed to GSK-3 inhibitors during both mid (days 3-9) and late (from day 10-23) stages of differentiation. Three alternative GSK-3 inhibitors were tested alongside BIO to determine effectiveness in inducing hepatic marker expression (SB216763, Kenpaullone and Indirubin-3-O) and results were compiled both for Phase I enzymes and Phase II enzymes and hepatic markers, with two negative controls (hESC-HEP not exposed to GSK-3 inhibition during differentiation, and undifferentiated hESC cells). During days 3-9 of differentiation, concentrations of GSK-3 inhibitors used were as follows: BIO 3.5 μM, SB216763 34 nM, Kenpaullone 0.23 μM and Indirubin-3-O 22 nM. […]

[15] = test system: hESC-HEP cultures (cell line SA002); assay: Functional CYP1A activity in hESC-HEP cultures with NaB together with BIO; type: cell-based, human; conditions: NaB 1 mM together with BIO 1.4 μM at day 21-25, vs parallel cultures without NaB
Description: FIG. 9. […] Analysis is performed day 24-25, n=1.
Cell line SA002 from mEF cultures was used as starting material.

O=C1Nc2cc(Br)ccc2/C1=C1/Nc2ccccc2/C1=N\O [BIO, (2′Z,3′E)-6-Bromoindirubin-3′-oxime]
hepatic gene marker expression (FIG. 4B) [1]: higher
metabolic activity (FIG. 4A) [2]: higher
culture purity (morphology) ([3]; 3.5 μM BIO from day 3 (Example 11) vs untreated (Example 9)): more purified hESC-HEP compared to untreated cultures
culture homogeneity (morphology) ([3]; 5 μM BIO from day 3, surviving cells passaged day 4): highly purified and homogenous culture of hESC-HEP
final purity of the cell populations ([3]; BIO addition at a later stage (day 10+)): greater final purity
culture homogeneity (morphology) ([3]; low concentration (1 μM) of BIO, day 3-9): highly heterogeneous cultures where hardly any hepatocyte-like cells were observed
CYP1A activity [4]: Increased
CYP3A activity [4]: Increased
activity of CYP1A [4]: increased
activity of CYP3A [4]: increased
metabolic activity (FIG. 5A) [4]: greater metabolic activity
increase of UGT1A1 activity ([5]; +/− BIO 1.4 μM days 14-25): much greater than for others
activity of most of the UGTs ([5]; +/− BIO 1.4 μM days 14-25, three differentiation protocols): greater activity
Beta catenin in the cytoplasm and nuclei ([6]; BIO treated hES-HEP cultures, Day 21): commonly observed
beta-catenin localisation ([6]; upon BIO treatment): translocate from cell membrane to nucleus
expression of CYP1A1, CYP1A2, CYP3A4, CYP2C9 and CYP7A1 [7]: clear increase
AAT ([7]; hPS+/−BIO, n=4): increase
transporters such as MRP2, Oct-1, GSTA1, BCEP and OATP2 ([7]; hPS+/−BIO, n=4): maintained at levels showing a maturation
Cyp1A activity over time [8]: increased during time
expression of CYP1A1, CYP1A2, CYP3A4 and CYP7A1 [9]: clear increase
levels of CYP2C9 [9]: maintained high
mRNA of CD44, AFP, CK18, CK19, CYP1A1, CYP1A2, CYP3A4, CYP2C9, CYP7A1, Albumin, OATP2, A1AT, MRP2 [9]: Increased
mRNA of CYP1A1, CYP1A2, CYP3A4, CYP2C9, CYP7A1, MRP2, CD44, AFP, CK18, CK19 [9]: Increased
AAT ([9]; hiPS+/−BIO, n=4): maintained on a high level
AFP levels ([9]; hiPS+/−BIO, n=4): decreased
Albumin ([9]; hiPS+/−BIO, n=4): maintained at a level high compared to known protocols
transporters such as MRP2, Oct-1, GSTA1, BCEP and OATP2 ([9]; hiPS+/−BIO, n=4, vs HepG2): maintained at levels significantly higher than HepG2
maturity of hiPS derived cells (Q-PCR, immunocytochemistry, Activity Assay) ([9]; media supplemented with BIO vs absence of GSK-3 inhibitor): became more mature
cell death ([10]; 3.5 μM BIO from day 3, compared to 5 μM BIO): less dramatic cell death
cell death ([10]; 5 μM BIO day 3): dramatic cell death
A1AT expression ([11]; BIO supplemented at day 3): strong increase at day 28
ALB expression ([11]; BIO supplemented at day 3): decreased at day 26
GSTA1 and UGT2B7 expression ([11]; BIO supplemented at day 3): increased expression
MRP2 and BSEP expression ([11]; BIO supplemented at day 3): increased expression
TAT expression levels ([11]; with BIO vs without BIO, all days): higher expression levels
activity of CYP1A [12]: increased
activity of CYP2C [12]: increased
activity of CYP3A [12]: increased

O=C1Cc2c([nH]c3ccc(Br)cc23)-c2ccccc2N1 [Kenpaullone, 9-Bromo-7,12-dihydro-indolo[3,2-d][1]benzazepin-6(5H)-one]
expression of most of the Phase I enzymes and hepatic markers [13]: higher levels of expression than BIO
expression of most of the Phase I enzymes [14]: higher levels of expression than BIO

CCCC(=O)[O-].[Na+] [NaB, Sodium Butyrate]
CYP1A activity [15]: increased
